Test results taken from PubChem BioAssay AID1963865 (Molecular Pharmacology Branch, DTP, NCI, 2024).
pIC50: −log10 of the molar value.

System: KRAS PDC multicell spheroid viability
Assay: Anticancer human tumor 825966-067-R-J1-PDC patient-derived colon carcinoma cell line growth inhibition [KRAS2]
Settings: for pIC50: curve of first compound; for viability, T/C: stronger effect = lower value
From the text: Multicellular complex tumor spheroid response to RAS pathway inhibitors in combination with a targeted agents in patient-derived cell lines with oncogenic KRAS variants from multiple cancer types
A high-throughput screen of multi-cell type tumor spheroids was designed to identify active combinations of targeted small molecules and KRAS pathway inhibitors. Complex spheroids include a stromal component modeled by human endothelial cells (HUVEC) and fibroblasts modeled by human mesenchymal stem cells (MSCs). The concentration ranges selected for each drug and investigational agent were based upon clinically achievable concentrations if the clinical Cmax of the agent was known.
Compounds. The drugs and investigational agents: BI-3406 (NSC825286), BAY-293 (NSC824723), batoprotafib (TNO155; NSC825523), sotorasib (AMG 510; NSC818433), MRTX1257 (NSC819558), elimusertib (BAY 1895344; NSC800525), molibresib (GSK525762; NSC774829), temuterkib (LY3214996; NSC803410), venetoclax (NSC766270), alisertib (NSC759677), olaparib (NSC753686), talazoparib (NSC767125), erdafitinib (NSC781556), ipatasertib (NSC767898), cabozantinib (NSC761068), nintedanib (NSC756659), abemaciclib (NSC768073), docetaxel (NSC628503), trametinib (NSC758246), and sapanisertib (NSC764658) were obtained from the National Cancer Institute (NCI) Developmental Therapeutics Program Chemical Repository. The FDA-approved anticancer drug set is available from the Developmental Therapeutics Program. […] The stock solutions were prepared in dimethyl sulfoxide (DMSO, Sigma-Aldrich, St. Louis, MO, cat. D2650) at 800-fold the tested concentration and stored at -70 degrees C prior to their use. All drugs and investigational agents were tested over a range starting from a high concentration at or near the clinical Cmax and decreasing in half-log increments. If the clinical Cmax for an agent had not been determined, the highest concentration tested was 10 microM.
Cell Culture. All cells were maintained in an incubator at 37 degrees C and 5% CO2 with 95% humidity. The PDC lines were cultured according to standard operating procedures established by the NCI PDMR (https://pdmr.cancer.gov/sops/default.htm). Briefly, all PDCs were thawed and cultured in Matrigel-coated flasks prepared with a working solution of 1X Ham's F-12 nutrient mix, without supplementation (Invitrogen, Waltham, MA, cat. 11765054), 100 U/mL penicillin-streptomycin (Invitrogen, cat. 15140122), and 2.5% Matrigel (Corning Inc., Corning, NY, cat. 354248) for the first three passages. All PDCs were cultured in complete DMEM/F-12 media containing advanced DMEM/F-12 (Invitrogen, cat. 12634028), 4.9% defined fetal bovine serum, heat inactivated (HyClone Laboratories Inc., Logan, UT, cat. SH30070.03HI), 389 ng/mL hydrocortisone (Sigma-Aldrich, cat. H4001), 9.7 ng/mL human EGF recombinant protein (Invitrogen, cat. PHG0313), 23.4 microg/mL adenine (Sigma-Aldrich, cat. A2786), 97.3 U/mL penicillin-streptomycin (Invitrogen, cat. 15140122), 1.9 mM L-glutamine (Invitrogen, cat. 25030081), and 9.7 microM Y-27632 dihydrochloride (Tocris Bioscience, Bristol, United Kingdom, cat. 1254). The PDCs were cultured in complete DMEM/F12 media without 9.7 microM Y-27632 dihydrochloride for at least two passages prior to the screen. The established cell line HOP-62 was cultured in RPMI 1640 medium, HEPES (Invitrogen, cat. 22400105) with 10% defined fetal bovine serum (HyClone Laboratories Inc., cat. SH30070.03) and 2 mM L-glutamine (Invitrogen, cat. 25030081). The pooled donor HUVEC were cultured in endothelial cell growth medium 2 (PromoCell, Heidelberg, Germany, cat. C-22011) and the hMSC were cultured in mesenchymal stem cell growth medium 2 (PromoCell, cat. C-28009). For all experiments, HUVEC and hMSC were used at passages </=5, while the malignant cell lines were used at passages </=15. […]

[1] = second compound 0.1 µM, first compound 0.0316 µM
[2] = second compound 0.1 µM, first compound 0.1 µM
[3] = second compound 0.316 µM, first compound 0.0316 µM
[4] = second compound 0.316 µM, first compound 0.1 µM
[5] = second compound 1 µM, first compound 0.0316 µM
[6] = second compound 1 µM, first compound 0.1 µM
[7] = second compound 3.16 µM, first compound 0.0316 µM
[8] = second compound 3.16 µM, first compound 0.1 µM
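Note: spheroids exposed to compounds for 7 days.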
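Throughout, for viability, T/C: 100% = DMSO vehicle control viability.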

CN(C)C/C=C/C(=O)Nc1cc2c(Nc3ccc(F)c(Cl)c3)ncnc2cc1O[C@H]1CCOC1 + C=CC(=O)N1CCN(c2nc(OCC3CCCN3C)nc3c2CCN(c2cccc4cccc(C)c24)C3)CC1CC#N
pIC50 (second compound 0.0316 µM): < 7.00
pIC50 (second compound 0.1 µM): < 7.00
pIC50 (second compound 0.316 µM): < 7.00
pIC50 (second compound 1 µM): < 7.00
pIC50 (second compound 3.16 µM): < 7.00
viability, T/C (second compound 0.0316 µM, first compound 0.000316 µM): 92%
viability, T/C (second compound 0.0316 µM, first compound 0.001 µM): 105%
viability, T/C (second compound 0.0316 µM, first compound 0.00316 µM): 86%
viability, T/C (second compound 0.0316 µM, first compound 0.01 µM): 83.4%
viability, T/C (second compound 0.0316 µM, first compound 0.0316 µM): 94.5%
viability, T/C (second compound 0.0316 µM, first compound 0.1 µM): 99.7%
viability, T/C (second compound 0.1 µM, first compound 0.000316 µM): 114%
viability, T/C (second compound 0.1 µM, first compound 0.001 µM): 107%
viability, T/C (second compound 0.1 µM, first compound 0.00316 µM): 100%
viability, T/C (second compound 0.1 µM, first compound 0.01 µM): 94.3%
viability, T/C [1]: 86.8%
viability, T/C [2]: 88%
viability, T/C (second compound 0.316 µM, first compound 0.000316 µM): 100%
viability, T/C (second compound 0.316 µM, first compound 0.001 µM): 107%
viability, T/C (second compound 0.316 µM, first compound 0.00316 µM): 74.8%
viability, T/C (second compound 0.316 µM, first compound 0.01 µM): 83.8%
viability, T/C [3]: 77%
viability, T/C [4]: 81.4%
viability, T/C (second compound 1 µM, first compound 0.000316 µM): 94.7%
viability, T/C (second compound 1 µM, first compound 0.001 µM): 84.9%
viability, T/C (second compound 1 µM, first compound 0.00316 µM): 89.3%
viability, T/C (second compound 1 µM, first compound 0.01 µM): 98.7%
viability, T/C [5]: 107%
viability, T/C [6]: 77.5%
viability, T/C (second compound 3.16 µM, first compound 0.000316 µM): 111%
viability, T/C (second compound 3.16 µM, first compound 0.001 µM): 83.6%
viability, T/C (second compound 3.16 µM, first compound 0.00316 µM): 87.5%
viability, T/C (second compound 3.16 µM, first compound 0.01 µM): 100%
viability, T/C [7]: 67.7%
viability, T/C [8]: 114%

O=C(c1cc(Cc2n[nH]c(=O)c3ccccc23)ccc1F)N1CCN(C(=O)C2CC2)CC1 + CNCc1ccccc1-c1csc(C(C)Nc2nc(C)nc3cc(OC)c(OC)cc23)c1
pIC50 (second compound 0.1 µM): < 5.00
pIC50 (second compound 0.316 µM): < 5.00
pIC50 (second compound 1 µM): < 5.00
pIC50 (second compound 3.16 µM): > 7.50
pIC50 (second compound 10 µM): > 7.50
viability, T/C [1]: 102%
viability, T/C [2]: 90.9%
viability, T/C (second compound 0.1 µM, first compound 0.316 µM): 81.1%
viability, T/C (second compound 0.1 µM, first compound 1 µM): 88.5%
viability, T/C (second compound 0.1 µM, first compound 3.16 µM): 78.6%
viability, T/C (second compound 0.1 µM, first compound 10 µM): 61.2%
viability, T/C [3]: 90.8%
viability, T/C [4]: 87.2%
viability, T/C (second compound 0.316 µM, first compound 0.316 µM): 92.6%
viability, T/C (second compound 0.316 µM, first compound 1 µM): 87.7%
viability, T/C (second compound 0.316 µM, first compound 3.16 µM): 77.9%
viability, T/C (second compound 0.316 µM, first compound 10 µM): 97.6%
viability, T/C [5]: 112%
viability, T/C [6]: 90.3%
viability, T/C (second compound 1 µM, first compound 0.316 µM): 87.8%
viability, T/C (second compound 1 µM, first compound 1 µM): 91.1%
viability, T/C (second compound 1 µM, first compound 3.16 µM): 104%
viability, T/C (second compound 1 µM, first compound 10 µM): 111%
viability, T/C [7]: 9.5%
viability, T/C [8]: 28.8%
viability, T/C (second compound 3.16 µM, first compound 0.316 µM): 40.8%
viability, T/C (second compound 3.16 µM, first compound 1 µM): 15.5%
viability, T/C (second compound 3.16 µM, first compound 3.16 µM): 1.24%
viability, T/C (second compound 3.16 µM, first compound 10 µM): 2.36%
viability, T/C (second compound 10 µM, first compound 0.0316 µM): 0.23%
viability, T/C (second compound 10 µM, first compound 0.1 µM): 0.27%
viability, T/C (second compound 10 µM, first compound 0.316 µM): 0.26%
viability, T/C (second compound 10 µM, first compound 1 µM): 0.23%
viability, T/C (second compound 10 µM, first compound 3.16 µM): 0.19%
viability, T/C (second compound 10 µM, first compound 10 µM): 0.27%
